Legend:
[1] = tested on: resting CCR6^+CD45RO^+CD25^− TM cells; assay: Cytokine expression in resting CCR6+ memory T cells stimulated with cytokines without TCR stimulation; type: cell-based, human
Procedure: Peripheral Blood Mononuclear Cells (PBMCs) from healthy individuals (New York Blood Center, New York, N.Y.) were prepared using Ficoll-paque plus (GE Amersham, Uppsala, Sweden). Whole blood samples from rheumatoid arthritis patients were purchased from Bioreclamation (New York, N.Y.) and were processed similar to healthy donor blood. All healthy donor and patient samples were consented prior to purchase, were none-identifiable and approved by institutional human subjects board. CD4^+ T cells were isolated using Dynal CD4 Positive Isolation Kit (Invitrogen, Carlsbad, Calif.) directly from purified PBMCs and were >99% pure. CD4^+ T cells were sorted by FACS ARIA cell sorter (BD, San Jose, Calif.) into CD45RO^+ CD25^− memory T (TM) cells. […] […] […] To determine the fold expansion, CCR6^+IL-17^+ or CCR6^+IL-17^− subsets were labeled with CFSE (Molecular Probes, Eugene, Oreg.) or eFluor 670 (eBioscience, San Diego, Calif.), respectively, as previously described (Oswald-Richter, et al., PLoS Biol 2004; 2: E198). […] In the experiments using PI-3K signaling inhibitors, cells were treated with PI-3K specific inhibitor, LY294002 (EMD, Gibbstown, N.J.), or Akt specific inhibitor, AKTi-1/2 (EMD), for 2 days before PMA and Ionomycin restimulation.

CCR6^+IL-17^− TM cells = assay: IL-17 induction in activated, FACS-sorted CCR6+IL-17- memory T cells cultured with cytokines, intracellular staining after PMA/ionomycin; type: cell-based, human; conditions: for IL-17 expression in CCR6+IL-17- T cells: cultured 6 days in the cytokine, compared with IL-2, FIG. 1e
Procedure: (§1) Peripheral Blood Mononuclear Cells (PBMCs) from healthy individuals (New York Blood Center, New York, N.Y.) were prepared using Ficoll-paque plus (GE Amersham, Uppsala, Sweden). Whole blood samples from rheumatoid arthritis patients were purchased from Bioreclamation (New York, N.Y.) and were processed similar to healthy donor blood. All healthy donor and patient samples were consented prior to purchase, were none-identifiable and approved by institutional human subjects board. CD4^+ T cells were isolated using Dynal CD4 Positive Isolation Kit (Invitrogen, Carlsbad, Calif.) directly from purified PBMCs and were >99% pure. CD4^+ T cells were sorted by FACS ARIA cell sorter (BD, San Jose, Calif.) into CD45RO^+ CD25^− memory T (TM) cells. TM cells were activated either by anti-CD3 and anti-CD28 (aCD3/aCD28) coated beads (1:4 beads:cells ratio) for 18-24 hours, or by Phorbol 12-myristate 13-acetate (PMA) and ionomycin for 4 hours and further FACS sorted based on CCR6 and IL-17 expression into CCR6^−IL-17^−, CCR6^+IL-17^+, or CCR6^+ IL-17^− subsets (as determined by secretion assay labeling, see below). Sorted cells (>99% pure) were cultured in serum-free Xvivo-15 medium (Lonza, Wakersville, Md.) at 37° C. and 5% CO2 for 6-7 days prior to restimulation with PMA and ionomycin (see below). […] To determine the fold expansion, CCR6^+IL-17^+ or CCR6^+IL-17^− subsets were labeled with CFSE (Molecular Probes, Eugene, Oreg.) or eFluor 670 (eBioscience, San Diego, Calif.), respectively, as previously described (Oswald-Richter, et al., PLoS Biol 2004; 2: E198). […] In the experiments using PI-3K signaling inhibitors, cells were treated with PI-3K specific inhibitor, LY294002 (EMD, Gibbstown, N.J.), or Akt specific inhibitor, AKTi-1/2 (EMD), for 2 days before PMA and Ionomycin restimulation.
Manufacturer's protocols (Miltenyi Biotec) for labeling human and mouse IL-17 secreting cells were followed. Briefly, activated T-cells were washed in cold buffer (PBS+0.5% BSA+2 mM EDTA) and labeled with IL-17 catch reagent for 5 minutes on ice. Pre-warmed medium was then added and the cells were incubated at 37° C. on a shaker for 45 minutes. For human IL-17 capture experiments, cells were washed once more with cold buffer and PE-conjugated IL-17 detection antibodies were added and incubated on ice for 10 minutes. For mouse IL-17 capture experiments, all steps were identical, except that the IL-17 detection antibody used was biotinylated, and a secondary staining step using APC-conjugated streptavidin was used. Cells were then washed and stained with additional cell surface antibodies at room temperature for 20 minutes. These cells were then washed once more with cold buffer, resuspended in serum-free RPMI 1640 medium, filtered and FACS sorted. […]

CCR6^− TM cells [2] = assay: IL-17 induction in sorted CCR6-IL-17- memory T cells cultured with cytokines; type: cell-based, human; conditions: cultured 6 days in the cytokine, restimulation
Procedure: (§2) Peripheral Blood Mononuclear Cells (PBMCs) from healthy individuals (New York Blood Center, New York, N.Y.) were prepared using Ficoll-paque plus (GE Amersham, Uppsala, Sweden). Whole blood samples from rheumatoid arthritis patients were purchased from Bioreclamation (New York, N.Y.) and were processed similar to healthy donor blood. All healthy donor and patient samples were consented prior to purchase, were none-identifiable and approved by institutional human subjects board. CD4^+ T cells were isolated using Dynal CD4 Positive Isolation Kit (Invitrogen, Carlsbad, Calif.) directly from purified PBMCs and were >99% pure. CD4^+ T cells were sorted by FACS ARIA cell sorter (BD, San Jose, Calif.) into CD45RO^+ CD25^− memory T (TM) cells. TM cells were activated either by anti-CD3 and anti-CD28 (aCD3/aCD28) coated beads (1:4 beads:cells ratio) for 18-24 hours, or by Phorbol 12-myristate 13-acetate (PMA) and ionomycin for 4 hours and further FACS sorted based on CCR6 and IL-17 expression into CCR6^−IL-17^−, CCR6^+IL-17^+, or CCR6^+ IL-17^− subsets (as determined by secretion assay labeling, see below). Sorted cells (>99% pure) were cultured in serum-free Xvivo-15 medium (Lonza, Wakersville, Md.) at 37° C. and 5% CO2 for 6-7 days prior to restimulation with PMA and ionomycin (see below). […]

CCR6^+ TM cells = assay: Effect of PI-3K/Akt inhibitors on cytokine production of IL-7-cultured CCR6+ memory T cells; type: cell-based, human; conditions: one week in IL-7, then inhibitor for 48 hours, restimulation
Procedure: as §1

Akt = assay: Cytokine-dependent Akt phosphorylation in memory T cells treated with inhibitors; type: cell-based, human; conditions: 1-10 μg/mL inhibitor, 48 hours
Procedure: as §2

TM cells = assay: Cell viability of memory T cells treated with inhibitors; conditions: 1-10 μg/mL inhibitor, 48 hours
CCR6^− TM cells [3] = assay: Cytokine expression in resting CCR6- memory T cells stimulated with IL-7; type: cell-based, human
Procedure: as §2

RORC = RORC / Foxp3 mRNA expression by quantitative PCR; type: cell-based, human; conditions: unpublished data
From the text: Purified T cells (1×10^5) were snap frozen in liquid nitrogen for total RNA isolation. Total RNA was isolated using RNeasy isolation kit (Qiagen, Valencia, Calif.) according to the manufacturer's protocol. The extracted RNA was then reverse transcribed into cDNA and quantified using Taqman Cell to CT kit (Applied Biosystems, Carlsbad, Calif.). Taqman primers and probe sets were purchased from Applied Biosystems: Human KLF2 (Hs00360439_g1), RORC (Hs01076120_g1), Il-17a (Hs00174383_m1), b-Actin (Hs03023880_g1), Foxp3 (Hs00203958_m1). Data was acquired and analyzed on ABI 7500 sequence detection system. Quantitative real-time PCR data was analyzed by normalizing Ct values of genes of interest to the Ct values of the housekeeping gene b-Actin.

Compound: IL-4: another γc-cytokine
- IL-17/IL-22 (Th17 cytokine) expression in resting CCR6+ TM cells ([1]; no TCR stimulation, unpublished data): did not promote Th17 cytokine production
- TM cell survival ([1]; resting TM cells, unpublished data): did not promote Th17 cytokine production in resting CCR6^+ TM cells or confer TM cell survival

Compound: IL-15: γc-cytokine from R&D Systems, used at 20 ng/mL
- IL-17 expression in CCR6+IL-17- T cells (CCR6^+IL-17^− TM cells): induced similar levels of IL-17 expression
- IL-17 expression in CCR6- TM cells (CCR6^− TM cells [2]): neither IL-7 nor IL-15 induced IL-17 expression

Compound: O=c1[nH]c2ccccc2n1C1CCN(Cc2ccc(-c3nc4cc5nc[nH]c5cc4nc3-c3ccccc3)cc2)CC1 [AKTi-1/2]
- expression of IFNγ (CCR6^+ TM cells): not affected
- expression of IL-4 (CCR6^+ TM cells): less reduced
- γc-mediated IL-17/IL-22 induction (CCR6^+ TM cells): repressed γc-mediated IL-17/IL-22 induction in a dose-dependent manner
- cytokine-dependent phosphorylation of Akt (Akt): downregulated cytokine-dependent phosphorylation of Akt
- cell viability (TM cells): without adversely affecting cell viability

Compound: IL-23: cytokine from R&D Systems, used at 20 ng/mL; known to enhance Th17 cell differentiation
- induction of IL-17/IL-22 expression from CCR6+ human TM cells (CCR6^+IL-17^− TM cells; IL-23 in place of γc cytokines, unpublished data): not able to compensate for γc cytokines
- IL-17 expression in CCR6+IL-17- T cells (CCR6^+IL-17^− TM cells): did not influence IL-17 expression
- further induction of IL-17 or IL-22 expression in combination with IL-7 ([1]; resting CCR6+ TM cells): did not significantly synergize with IL-7

Compound: IL-7: γc-cytokine from R&D Systems, used at 20 ng/mL
- IL-17 expression in CCR6+IL-17- T cells (CCR6^+IL-17^− TM cells): induced similar levels of IL-17 expression
- IL-17 expression in CCR6- TM cells (CCR6^− TM cells [2]): neither IL-7 nor IL-15 induced IL-17 expression
- enhancement of IL-17 expression compared to the same cells ex vivo (day 0) ([1]; 10 days, no TCR stimulation): more than 3 fold
- enhancement of IL-22 expression compared to the same cells ex vivo (day 0) ([1]; 10 days, no TCR stimulation): more than 3 fold
- increase of cells co-expressing IL-22 or IFNγ with IL-17 ([1]; IL-7 stimulation): more than 5 fold
- IFNγ production ([1]; resting CCR6+ or CCR6- TM cells cultured with IL-7): almost no impact
- IL-17 or IL-22 expression in CCR6- TM cells (CCR6^− TM cells [3]): failed to express IL-17 or IL-22
- RORC mRNA expression levels (RORC): neither IL-7 stimulation, nor treatment with PI-3K or Akt inhibitors, nor overexpression of FOXO1 or KLF2 affected RORC mRNA expression levels

Source: US20130045491A1, “METHODS FOR ACTIVATING T CELLS” (priority 2011, published 2013)
